The NIST ThermoML archive (doi:10.1021/je025610o)
Numbers after ± are expanded uncertainties.

Key:
[1] = 100 kPa, Liquid, Capillary tube (Ostwald / Ubbelohde) method
[2] = xn = mol fraction of the nth substance listed; settings: 100 kPa, Liquid; for thermal conductivity: Hot wire method

OCCO [1,2-ethanediol]
[1]
Settings | viscosity [mPa·s]
295.55 K | 19.1 ± 0.4
313.05 K | 9.74 ± 0.2
333.1 K | 5.24 ± 0.11
353.05 K | 3.13 ± 0.07
372.15 K | 2.06 ± 0.04
392.45 K | 1.44 ± 0.03
412.25 K | 1.07 ± 0.02
428.3 K | 0.867 ± 0.018

OCCO [1,2-ethanediol] + O
[2]
Settings | mass density [kg/m3] | thermal conductivity [W/m/K] | viscosity [mPa·s]
296.4 K, x1 = 0.25 | 1068 ± 2 | – | –
296.45 K, x1 = 0.25 | – | – | 3.69 ± 0.11
297.05 K, x1 = 0.5 | 1094 ± 2 | – | 7.61 ± 0.21
297.35 K, x1 = 0.75 | 1106 ± 2 | – | 12.3 ± 0.3
298.5 K, x1 = 0.75 | – | 0.269 ± 0.005 | –
303.4 K, x1 = 0.25 | – | 0.391 ± 0.008 | –
312.3 K, x1 = 0.5 | – | 0.316 ± 0.006 | –
313.05 K, x1 = 0.25 | 1058 ± 2 | – | 2.29 ± 0.07
313.05 K, x1 = 0.5 | 1083 ± 2 | – | 4.49 ± 0.13
313.05 K, x1 = 0.75 | 1094 ± 2 | – | 6.97 ± 0.19
323.6 K, x1 = 0.25 | – | 0.4 ± 0.008 | –
324.2 K, x1 = 0.75 | – | 0.272 ± 0.006 | –
324.4 K, x1 = 0.5 | – | 0.314 ± 0.006 | –
333.05 K, x1 = 0.25 | 1045 ± 2 | – | 1.47 ± 0.04
333.1 K, x1 = 0.5 | 1069 ± 2 | – | 2.62 ± 0.08
333.1 K, x1 = 0.75 | 1080 ± 2 | – | 3.88 ± 0.11
347.5 K, x1 = 0.75 | – | 0.277 ± 0.006 | –
347.7 K, x1 = 0.5 | – | 0.324 ± 0.007 | –
348.6 K, x1 = 0.25 | – | 0.416 ± 0.008 | –
353.05 K, x1 = 0.25 | 1030 ± 2 | – | 0.99 ± 0.03
353.05 K, x1 = 0.5 | 1054 ± 2 | – | 1.7 ± 0.05
353.05 K, x1 = 0.75 | 1065 ± 2 | – | 2.42 ± 0.07
371.9 K, x1 = 0.75 | – | 0.281 ± 0.006 | –
372 K, x1 = 0.25 | – | 0.423 ± 0.009 | –
372.8 K, x1 = 0.5 | – | 0.33 ± 0.007 | –
373.45 K, x1 = 0.75 | 1049 ± 2 | – | 1.62 ± 0.05
374.85 K, x1 = 0.25 | 1013 ± 2 | – | –
376.05 K, x1 = 0.5 | 1035 ± 2 | – | –
378.85 K, x1 = 0.25 | – | – | 0.689 ± 0.021
380.05 K, x1 = 0.5 | – | – | 1.07 ± 0.03
383.35 K, x1 = 0.75 | 1041 ± 2 | – | 1.37 ± 0.04
390.25 K, x1 = 0.5 | 1023 ± 2 | – | –
393.2 K, x1 = 0.75 | 1033 ± 2 | – | 1.18 ± 0.04
394.25 K, x1 = 0.5 | – | – | 0.87 ± 0.03
395.9 K, x1 = 0.25 | – | 0.428 ± 0.009 | –
396.8 K, x1 = 0.75 | – | 0.28 ± 0.006 | –
396.95 K, x1 = 0.25 | 995.5 ± 2.2 | – | –
397 K, x1 = 0.5 | – | 0.332 ± 0.007 | –
400.95 K, x1 = 0.25 | – | – | 0.518 ± 0.017
403.15 K, x1 = 0.75 | 1025 ± 2 | – | 1.02 ± 0.03
404.75 K, x1 = 0.75 | 1023 ± 2 | – | –
406.05 K, x1 = 0.5 | 1010 ± 2 | – | –
407.75 K, x1 = 0.75 | – | – | 0.978 ± 0.03
410.05 K, x1 = 0.5 | – | – | 0.706 ± 0.022
413.15 K, x1 = 0.75 | 1016 ± 2 | – | 0.903 ± 0.027
417.15 K, x1 = 0.25 | 977.4 ± 2.2 | – | –
418.35 K, x1 = 0.75 | 1012 ± 2 | – | –
419.9 K, x1 = 0.75 | – | 0.279 ± 0.006 | –
421 K, x1 = 0.25 | – | 0.432 ± 0.009 | –
421.15 K, x1 = 0.25 | – | – | 0.418 ± 0.014
421.7 K, x1 = 0.5 | – | 0.32 ± 0.007 | –
422.35 K, x1 = 0.75 | – | – | 0.806 ± 0.025
423.55 K, x1 = 0.5 | 994.5 ± 2.2 | – | –
427.55 K, x1 = 0.5 | – | – | 0.573 ± 0.018
431.55 K, x1 = 0.25 | 964.9 ± 2.2 | – | –
431.95 K, x1 = 0.75 | 1000 ± 2 | – | –
435.55 K, x1 = 0.25 | – | – | 0.366 ± 0.012
435.95 K, x1 = 0.75 | – | – | 0.691 ± 0.022
436.65 K, x1 = 0.5 | 982.5 ± 2.2 | – | –
440.65 K, x1 = 0.5 | – | – | 0.5 ± 0.02
441.6 K, x1 = 0.75 | – | 0.276 ± 0.006 | –
445.85 K, x1 = 0.75 | 987 ± 2 | – | –
449.85 K, x1 = 0.75 | – | – | 0.594 ± 0.019

OCCOCCO [diethylene glycol]
[1]
Settings | viscosity [mPa·s]
294.2 K | 35.1 ± 0.7
313.05 K | 15.1 ± 0.3
333.05 K | 7.64 ± 0.16
353.05 K | 4.41 ± 0.09
373.6 K | 2.76 ± 0.06
393.4 K | 1.92 ± 0.04
413.25 K | 1.41 ± 0.03
428.15 K | 1.15 ± 0.03
